Test results taken from patent publication US11478460B2, “Diaryl substituted 6,5-fused ring compounds as C5aR inhibitors” (CHEMOCENTRYX, INC., priority 2017, dated 2022).

Each molecule was assayed against C5aR (Homo sapiens (Human), UniProt P21730) (assay: Chemotaxis assay using U937 cells (C5aR mediated migration)). Details: read-out: Mig IC50.
Assay type: cell-based
Method: U937 cells are a monocytic cell line which express C5aR, and are available from ATCC (VA). These cells were cultured as a suspension in RPMI-1640 medium supplemented with 2 mM L-glutamine, 1.5 g/L sodium bicarbonate, 4.5 g/L glucose, 10 mM HEPES, 1 mM sodium pyruvate, and 10% FBS. Cells were grown under 5% CO2/95% air, 100% humidity at 37° C. and subcultured twice weekly at 1:6 (cells were cultured at a density range of 1×10^5 to 2×10^6 cells/mL) and harvested at 1×10^6 cells/mL. Prior to assay, cells are treated overnight with 0.5 mM of cyclic AMP (Sigma, OH) and washed once prior to use. cAMP treated U937 cells can be used in C5aR ligand binding and functional assays.
Optionally, compounds may be further assayed for their ability to inhibit chemotaxis in cells. Chemotaxis assays are performed using 5 μm pore polycarbonate, polyvinylpyrrolidone-coated filters in 96-well chemotaxis chambers (Neuroprobe; Gaithersburg, Md.) using chemotaxis buffer (Hank's balanced salt solution (HBSS) and 1% FBS). C5aR ligands (i.e., C5a, R&D Systems; Minneapolis, Minn.) are use to evaluate compound mediated inhibition of C5aR mediated migration. Other chemokines (i.e., SDF-1α; R&D Systems; Minneapolis, Minn.) are used as specificity controls. The lower chamber is loaded with 29 μl of chemokine (i.e., 0.03 nM C5a) and varying amounts of compound; the top chamber contains 100,000 U937 or neutrophil cells in 20 μl. The chambers are incubated 1.5 hours at 37° C., and the number of cells in the lower chamber quantified either by direct cell counts in five high powered fields per well or by the CyQuant assay (Molecular Probes), a fluorescent dye method that measures nucleic acid content and microscopic observation.
The compounds in Table 1, below, were prepared using the methods described above. Characterization data is provided for each compound listed. Activity is provided as follows for the chemotaxis assay using U937 cells as described herein (Example 12): +, 500 nM<IC50; ++, 50 nM<IC50≤500 nM; +++, 5 nM<IC50≤50 nM; and ++++, IC50≤5 nM.

Sequence of C5aR (P21730 whole entry): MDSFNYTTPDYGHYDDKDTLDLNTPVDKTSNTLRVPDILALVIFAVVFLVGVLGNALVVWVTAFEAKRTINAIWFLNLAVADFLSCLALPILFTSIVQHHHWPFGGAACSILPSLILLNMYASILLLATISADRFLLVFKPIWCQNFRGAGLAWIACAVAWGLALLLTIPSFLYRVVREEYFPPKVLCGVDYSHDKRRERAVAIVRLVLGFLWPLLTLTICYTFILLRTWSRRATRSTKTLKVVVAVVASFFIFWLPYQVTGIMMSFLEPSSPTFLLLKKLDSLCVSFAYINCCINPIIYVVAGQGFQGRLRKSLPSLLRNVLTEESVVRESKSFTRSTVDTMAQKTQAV

Row | SMILES | IC50 [nM]
1 | Cc1cccc(OCC(C)C)c1-n1nc2c(c1-c1ccc(NC(N)=O)cc1)CN(Cc1ccc(F)cc1C(F)(F)F)CC2 [Example 1.358] | ≤ 5
2 | Cc1cccc(OCC(C)C)c1-n1nc2c(c1-c1cc(F)c(NC(N)=O)cc1F)CN(C(c1ccccc1)C(F)(F)F)CC2 (stereo not drawn) [Example 1.196] | ≤ 5
3 | Cc1cccc(OCC(C)C)c1-n1nc2c(c1-c1ccc(NC(N)=O)c(F)c1)CN(S(=O)(=O)c1ccccc1)CC2 [Example 1.237] | 5 to 50
4 | CCc1cccc(CC)c1-n1nc2c(c1-c1cc(F)c(NC(=O)CO)cc1F)CN(Cc1ccc(C(F)(F)F)cc1C(F)(F)F)CC2 [Example 1.002] | 50 to 500
5 | Cc1cccc(OCC(C)C)c1-n1nc2c(c1-c1ccc(NC(N)=O)cc1)CN(C(=O)CCc1ccccc1)CC2 [Example 1.429] | 50 to 500
6 | Cc1cccc(F)c1-n1nc2c(c1-c1cc(F)c(NC(N)=O)cc1F)CN(c1ncc(Cl)cc1Cl)CC2 [Example 1.176] | ≤ 5
7 | Cc1cccc(OCC(C)C)c1-n1nc2c(c1-c1ccc(NC(N)=O)c(F)c1)CN(C(C)C1CCCC1)CC2 (stereo not drawn) [Example 1.254] | ≤ 5
8 | CCC(C)(C)CN1CCc2nn(-c3c(C)cccc3OCC(C)C)c(-c3ccc(NC(N)=O)cc3)c2C1 [Example 1.381] | 5 to 50
9 | CC[C@@H](c1ccccc1)N1CCc2nn(-c3c(C)cccc3C)c(-c3ccc(NC(N)=O)cc3)c2C1 [Example 1.082] | 50 to 500
10 | Cc1cccc(C)c1-n1nc2c(c1-c1cc(F)c(NC(N)=O)cc1F)CN(CC(C)(C)O)CC2 [Example 1.086] | > 500
11 | CC(C)(c1ccccc1)N1CCc2nn(-c3ccccc3OCC(F)(F)F)c(-c3cc(F)c(NC(N)=O)cc3F)c2C1 [Example 1.136] | ≤ 5
12 | Cc1cccc(OCC(C)C)c1-n1nc2c(c1-c1ccc(NC(N)=O)cc1)CN(C(=O)c1ccccc1C(C)C)CC2 [Example 1.434] | 50 to 500
13 | Cc1cccc(OCC(C)C)c1-n1nc2c(c1-c1ccc(NC(N)=O)c(F)c1)CN(Cc1ccc(C(F)(F)F)cc1C(F)(F)F)CC2 [Example 1.277] | ≤ 5
14 | CCc1cccc(CC)c1-n1nc2c(c1-c1ccc(NC(N)=O)cc1)CN(Cc1ccccn1)CC2 [Example 1.283] | > 500
15 | Cc1cccc(OCC(C)C)c1-n1nc2c(c1-c1ccc(NC(N)=O)c(C#N)c1)CN(c1ncc(C(F)(F)F)cc1F)CC2 [Example 1.226] | > 500
16 | Cc1cccc(C)c1-n1nc2c(c1-c1cc(F)c(NC(N)=O)cc1F)CN(c1ccc(F)cc1Cl)CC2 [Example 1.106] | ≤ 5
17 | Cc1cccc(OCC(C)C)c1-n1nc2c(c1-c1ccc(NC(N)=O)cc1)CN(Cc1ccc(F)cc1F)CC2 [Example 1.316] | ≤ 5
18 | COc1cc(NC(N)=O)c(F)cc1-c1c2c(nn1-c1c(C)cccc1C)CCN(c1ccc(Cl)cc1Cl)C2 [Example 1.114] | ≤ 5
19 | Cc1cccc(OCC(C)C)c1-n1nc2c(c1-c1ccc(NC(N)=O)cc1)CN(Cc1c(C(F)(F)F)ccc(Cl)c1Cl)CC2 [Example 1.333] | ≤ 5

Row | SMILES | IC50 [nM]
20 | Cc1cccc(OCC(C)C)c1-n1nc2c(c1-c1ccc(NC(N)=O)cc1)CN(c1ccc(C(F)(F)F)c(Cl)c1)CC2 [Example 1.413] | 5 to 50
21 | Cc1ccc(C(C)C)nc1N1CCc2nn(-c3c(C)cccc3OCC(C)C)c(-c3ccc(NC(N)=O)cc3)c2C1 [Example 1.347] | ≤ 5
22 | CCC(CC)N1CCc2nn(-c3c(C)cccc3OCC(C)C)c(-c3ccc(NC(N)=O)c(F)c3)c2C1 [Example 1.255] | ≤ 5
23 | Cc1cccc(OCC(C)C)c1-n1nc2c(c1-c1ccc(NC(N)=O)cc1)CN(CC(C)(C)C(F)(F)F)CC2 [Example 1.373] | 5 to 50
24 | CCc1cccc(CC)c1-n1nc2c(c1-c1cc(F)c(NC(N)=O)cc1F)CN(C(C)(C)c1cccc(OC)c1)CC2 [Example 1.156] | ≤ 5
25 | CCc1cccc(CC)c1-n1nc2c(c1-c1cc(F)c(NC(N)=O)cc1F)CN(Cc1ccc(F)cc1C(F)(F)F)CC2 [Example 1.044] | ≤ 5
26 | Cc1cccc(C)c1-n1nc2c(c1-c1cc(F)c(NC(N)=O)cc1F)CN(C(CO)c1ccccc1)CC2 (stereo not drawn) [Example 1.087] | 50 to 500
27 | CC(=O)Nc1cc(F)c(-c2c3c(nn2-c2c(C)cccc2C)CCN(c2ncc(Cl)cc2Cl)C3)cc1F [Example 1.126] | 50 to 500
28 | CCc1cccc(CC)c1-n1nc2c(c1-c1cc(F)c(NC(N)=O)cc1F)CN(Cc1ccc(Cl)cc1Cl)C(C)(C)C2 [Example 1.024] | ≤ 5
29 | Cc1cccc(OCC(C)C)c1-n1nc2c(c1-c1ccc(NC(N)=O)cc1Cl)CN(c1ncc(C(F)(F)F)cc1F)CC2 [Example 1.269] | ≤ 5
30 | Cc1cccc(OCC(C)C)c1-n1nc2c(c1-c1ccc(NC(N)=O)c(F)c1)CN(c1ncc(Cl)cc1Cl)CC2 [Example 1.252] | ≤ 5
31 | CCC(c1ccccc1)N1CCc2nn(-c3c(C)cccc3C)c(-c3cc(F)c(NC(N)=O)cc3F)c2C1 (stereo not drawn) [Example 1.096] | ≤ 5
32 | CCc1cccc(CC)c1-n1nc2c(c1-c1cc(F)c(NC(N)=O)cc1F)CN(C(=O)OC(C)(C)C)[C@H](C)C2 [Example 1.025] | ≤ 5
33 | Cc1cccc(OCC(C)C)c1-n1nc2c(c1-c1ccc(NC(N)=O)cc1F)CN(c1ncc(C(F)(F)F)cc1F)CC2 [Example 1.270] | ≤ 5
34 | Cc1cccc(C)c1-n1nc2c(c1-c1cc(F)c(NC(N)=O)cc1F)CN(c1ncc(C(C)C)cn1)CC2 [Example 1.153] | 5 to 50
35 | Cc1cccc(OCC(C)C)c1-n1nc2c(c1-c1ccc(N)c(Cl)c1)CN(c1ncc(C(F)(F)F)cc1F)CC2 [Example 1.279] | 5 to 50
36 | Cc1cccc(F)c1-n1nc2c(c1-c1ccc(NC(N)=O)cc1)CN(c1ccccc1C(C)C)CC2 [Example 1.461] | 50 to 500
37 | Cc1cccc(C)c1-n1nc2c(c1-c1cc(F)c(NC(N)=O)cc1F)CN(c1cc(C(F)(F)F)ccc1F)CC2 [Example 1.094] | ≤ 5
38 | Cc1cccc(OCC(C)C)c1-n1nc2c(c1-c1ccc(NC(N)=O)c(F)c1)CN(C(c1ccccc1)C(F)(F)F)CC2 (stereo not drawn) [Example 1.225] | ≤ 5

Row | SMILES | IC50 [nM]
39 | CCNc1ccc(-c2c3c(nn2-c2c(C)cccc2OC)CCN(c2ccccc2C(C)C)C3)cc1 [Example 1.476] | 5 to 50
40 | CCc1cccc(CC)c1-n1nc2c(c1-c1cc(F)c(NC(N)=O)cc1F)CN(Cc1ccc(Cl)cc1Cl)CC2 [Example 1.073] | ≤ 5
41 | CCc1cccc(CC)c1-n1nc2c(c1-c1cc(F)c(NC(N)=O)cc1F)CN(C(C)(C)c1ccc(F)cc1)CC2 [Example 1.192] | ≤ 5
42 | COc1cc(NC(N)=O)c(F)cc1-c1c2c(nn1-c1c(C)cccc1C)CCN(c1ccc(C(F)(F)F)cc1F)C2 [Example 1.111] | ≤ 5
43 | Cc1cccc(C)c1-n1nc2c(c1-c1cc(F)c(NC(N)=O)cc1F)CN(c1ncc(C(F)(F)F)cn1)CC2 [Example 1.154] | ≤ 5
44 | COc1cc(NC(N)=O)c(F)cc1-c1c2c(nn1-c1c(C)cccc1C)CCN(c1ncc(Cl)cc1Cl)C2 [Example 1.123] | ≤ 5
45 | CCc1cccc(CC)c1-n1nc2c(c1-c1cc(F)c(NC(N)=O)cc1F)CN(C(=O)c1ccnn1C)C(C)(C)C2 [Example 1.005] | 5 to 50
46 | Cc1cccc(C)c1-n1nc2c(c1-c1ccc(CO)cc1)CN(c1ccccc1C(C)C)CC2 [Example 1.467] | 50 to 500
47 | Cc1ccc(C(C)(C)C)cc1N1CCc2nn(-c3c(C)cccc3CC(C)C)c(-c3ccc(N(C)C(N)=O)cc3)c2C1 [Example 1.400] | > 500
48 | Cc1cccc(OCC(C)C)c1-n1nc2c(c1-c1ccc(NC(N)=O)cc1)CN(C(=O)NC(C)(C)C)CC2 [Example 1.437] | > 500
49 | Cc1cccc(C)c1-n1nc2c(c1-c1ccc(N)cc1)CN(c1ccccc1C(C)C)CC2 [Example 1.481] | 5 to 50
50 | Cc1cccc(OCC(C)C)c1-n1nc2c(c1-c1ccc(NC(N)=O)cc1)CN(c1cc(C(F)(F)F)ccc1F)CC2 [Example 1.368] | 5 to 50
51 | Cc1cccc(C)c1-n1nc2c(c1-c1ccc(C(N)=O)cc1)CN(C(=O)OC(C)(C)C)CC2 [Example 1.420] | > 500
52 | Cc1cccc(OCC(C)C)c1-n1nc2c(c1-c1ccc(N)cc1)CN(c1ccccc1C(C)C)CC2 [Example 1.480] | 5 to 50
53 | CCc1cccc(CC)c1-n1nc2c(c1-c1cc(F)c(NC(N)=O)cc1F)CN(Cc1ccc(C)cc1C)CC2 [Example 1.063] | ≤ 5
54 | Cc1cccc(OCC(C)C)c1-n1nc2c(c1-c1ccc(NC(N)=O)cc1)CN(Cc1c(F)cc(F)cc1F)CC2 [Example 1.307] | 5 to 50
55 | Cc1ccc(C(C)(C)C)cc1N1CCc2nn(-c3c(C)cccc3OCC(C)C)c(-c3ccc(C(N)=O)cc3)c2C1 [Example 1.445] | 5 to 50
56 | CCc1cccc(CC)c1-n1nc2c(c1-c1ccc(NC(N)=O)cc1)CN(Cc1cc(Cl)ccc1C(F)(F)F)CC2 [Example 1.292] | 5 to 50
57 | Cc1cccc(OCC(C)C)c1-n1nc2c(c1-c1ccc(NC(N)=O)c(F)c1)CN([C@@H](C)C(C)C)CC2 [Example 1.257] | ≤ 5
